Laboratory results reported in patent US10280156B2, “Heteroaromatic chalcone derivatives and their medical use” (Medizinische Universität Wien, priority 2014, dated 2019).
“And” between values parts separate entries of the source, which are not always exact repeats. Equal values may be shown once.

Legend:
OCI-Ly7 = assay: Viability test on OCI-Ly7 cells, 48 h; type: cell-based, human; conditions: 48 h incubation; nd = no significant cytotoxic activity up to 100 μM
Description: (§1) JURKAT and CCRF-CEM (T-cell acute lymphoblastic leukemia), HL60 and K562 representing acute and chronic myeloid leukemia, respectively, the chronic lymphocytic leukemia cell line MEC-1, and the diffuse large B-cell lymphoma cell line U-2940 were cultured in Gibco RPMI 1640+GlutaMAX (Life Technologies, Carlsbad, Calif., USA) supplemented with 10% fetal bovine serum gold (FBS gold; PAA Laboratories, Pasching, Austria) and 1% PenStrep (100 U/ml penicillin and 100 μg/ml streptomycin; PAA Laboratories), and maintained at 37° C. in humidified atmosphere with 5% CO2. The diffuse large B-cell lymphoma cell line OCI-LY7 was cultured in Gibco IMDM+GlutaMAX and 25 mM HEPES (Life Technologies) containing 20% FBS gold and 1% PenStrep.
(§2) All experiments with hematological cell lines were done using phenol red-free RPMI 1640+L-glutamine (PAA Laboratories) supplemented with 1% PenStrep and 10% FBS gold, except experiments with OCI-Ly7 which were carried out in Gibco IMEM+GlutaMAX and 25 mM HEPES containing 20% FBS gold and 1% PenStrep. Cells were incubated in triplicates with increasing concentrations of the compounds for 48 h, changes in viability were determined using the cell proliferation and cytotoxicity assays EZ4U (Biomedica Group, Austria) and CellTiter-Blue Cell Viability Assay (Promega, Madison, Wis., USA) following instructions of the manufacturers. IC50 values were calculated from two independent experiments using GraphPad Prism 5 software.
(§3) Initially, compounds were biologically tested in six concentration steps (0.1 μM; 1 μM; 5 μM; 10 μM; 50 μM; and 100 μM) using the CellTiter-Blue Cell Viability Assay (Promega, Madison, Wis., USA) and an incubation time of 48 hours. […] IC50 values were calculated from at least two independent experiments with 3 replicates each. In order to evaluate the biologic activity of the new compounds, cytotoxicity was compared to that of fludarabine, an already approved drug for the treatment of various B-cell malignancies. […] Differences in IC50 values for the different cell types can be explained by the biological and genetic particularities of each subtype of B-cell Non-Hodgkin lymphoma (Stacchini A et al. Leukemia Res 1999, 23, 127-136; Sambade C et al. Int J Cancer 2006, 118, 555-563; Chang H et al. Leukemia lymphoma 1995, 19, 165-171; Tweeddale M E et al. Blood 1987, 69, 1307-1314; Tweeddale M et al. Blood 1989, 74, 572-578).

U-2940 = assay: Viability test on U-2940 cells, 48 h; type: cell-based, human; conditions: 48 h incubation; nd = no significant cytotoxic activity up to 100 μM
Description: as §1, §2, §3

[1] = test system: PBMC of CLL patients cultured over a layer of mouse fibroblast cells (M2-10B4); assay: Viability of CLL cells in co-culture with M2-10B4 fibroblast cells; type: cell-based; conditions: Homo sapiens, M210B4, 48 h
Description: Primary cells were incubated at a density of 300,000 cells per well in 96-well plates in a total volume of 100 μl of Gibco RPMI 1640+L-glutamine (PAA Laboratories) supplemented with 20% FBS gold with increasing concentrations of compounds for 48 h. For co-culture experiments, 150,000 M2-10B4 mouse fibroblast cells were seeded into 12-well plates and allowed to form a confluent layer over night. Supernatant was replaced by 3 million primary cells in a total volume of 1 ml medium and incubated with increasing concentrations of compounds for 48 h. Viability was measured using CellTiter-Blue Cell Viability Assay (Promega, Madison, Wis., USA) following the instructions of the manufacturers. Experiments with primary cells were done in triplicates, IC50 values were calculated from the mean values of all samples used in the various experiments using GraphPad Prism 5 software.
As a last step, it has been sought to evaluate the cytotoxicity of compound 15 in primary cells and compare its activity to the impact of fludarabine. To this end, peripheral blood mononuclear cells (PBMC) of chronic lymphocytic leukemia (CLL) patients were used in two experimental settings. They were cultured in conventional suspension culture being exposed to increasing concentrations of drug. […]

Jurkat = assay: Viability test on Jurkat cells; type: cell-based, human
Description: as §1, with “The diffuse large B-cell lymphoma cell line OCI-LY7 was cultured in Gibco IMDM+GlutaMAX and 25 mM HEPES (Life Technologies) containing 20% FBS gold and 1% PenStrep.” left out
as §2, with “software. […]” for “software.”

M2-10B4 = assay: Viability test on mouse fibroblast cell line M2-10B4, 48 h; type: cell-based; conditions: Mus musculus, M210B4, 48 h, 48 h incubation; mouse fibroblast cell line
Description: as §2
Structurally seen, the small molecule compound 1 represents a typical chalcone scaffold. It is characterized by an ortho-ethoxy-substituted phenyl part as ring A and a 2-naphthyl moiety symbolizing ring B. The focus of the present study was to guide the systematic identification of a growth inhibitor with specificity to neoplastic cells, as cytotoxicity towards healthy cells is mostly associated with adverse effects, which can be related to morbidity and mortality of the patient (Milligan D W et al. Brit J Haematol 2006, 135, 450-474). To discriminate in vitro between structural elements necessary for potent cytotoxicity towards tumor cells which, at the same time, clearly show less activity on normal cells, the compounds were additionally tested on the murine bone marrow fibroblast cell line M2-10B4. This cell line is regularly used as feeder layer when cultured with patient cells providing additional support and survival signals in particular in drug screens (Kurtova A V et al. Blood 2009, 114, 4441-4450).
as §3

SU-DHL9 = assay: Viability test on SU-DHL9 cells; type: cell-based, human
Description: as §2
Hematologic malignancies are highly heterogeneous in their biology and behavior. This and the fact that some patient groups are resistant to therapy underlines the urgent need for new therapeutic drugs. Compound 15 has therefore been tested on other cell lines representing a variety of hematologic neoplasms: two T-cell acute leukemia cell lines (CCRF, Jurkat), two myeloid leukemia cell lines (HL60, K562), and two additional B-cell lines (SU-DHL6, SU-DHL9). Viability was assessed as described in the methods section above. […] An exception was the chronic myeloid leukemia line K562. […]

MEC1 = assay: Viability test (CellTiter-Blue/EZ4U) on MEC1 cells, 48 h; type: cell-based, human; conditions: Homo sapiens, MEC1, 48 h, 48 h incubation; nd = no significant cytotoxic activity up to 100 μM
Description: as §1, §2, §3

CCOc1ccccc1C(=O)/C=C/c1cc2ccccc2[nH]1 [Compound 15, 1-(2-Ethoxyphenyl)-3-(1H-indole-2-yl)-2-propen-1-one]
IC50 (OCI-Ly7): 2900 nM
IC50 (U-2940): 50 nM and 52 nM
IC50 [1]: 680 nM
IC50 (Jurkat; Homo sapiens, T-cell acute leukemia, nd = no significant cytotoxic activity up to 100 μM): 40 nM
viability, % of control (Jurkat; at concentrations <1 μM): less than 30 % of control
IC50 (M2-10B4): 19200 nM
IC50 (SU-DHL9; Homo sapiens, B-cell lymphoma, nd = no significant cytotoxic activity up to 100 μM): 30 nM
viability, % of control (SU-DHL9; SU-DHL9, at concentrations <1 μM): less than 30 % of control
IC50 (MEC1): 22 nM
